Assays:
[1] = biological target: T1, hERG cardiac potassium channel (Homo sapiens, UniProt Q12809); test: in vitro; assay type: cell-based; conditions: pH 7.4
T1 construct: host or cells: CHO-K1 cells stably transfected with HERG cDNA
Procedure: In Vitro Voltage Clamp Assay of Inhibition of Potassium Ion Current in Whole Cells Expressing the hERG Cardiac Potassium Channel
CHO-K^1 cells stably transfected with HERG cDNA were obtained from Gail Robertson at the University of Wisconsin. Cells were held in cryogenic storage until needed. Cells were expanded and passaged in Dulbecco's Modified Eagles Medium/F12 supplemented with 10% fetal bovine serum and 200 μg/mL geneticin. Cells were seeded onto poly-D-lysine (100 μg/mL) coated glass coverslips, in 35 mm^2 dishes (containing 2 mL medium) at a density that enabled isolated cells to be selected for whole cell voltage-clamp studies. The dishes were maintained in a humidified, 5% CO2 environment at 37° C.
Extracellular solution was prepared at least every 7 days and stored at 4° C. when not in use. […]
The coverslips on which the cells were seeded were transferred to a recording chamber and perfused continuously. […] Peak current amplitudes during the repolarization phase were determined using pClamp software. […]
Peak current amplitudes during the repolarization phase were determined using pCLAMP software. […] The normalized current means and standard errors for each condition were calculated and plotted versus the time course of the experiment. […]

in vivo = conditions: male, Sprague-Dawley, rat
Procedure: Pharmacokinetic Study in the Rat
Male Sprague-Dawley rats (CD strain, Charles River Laboratories, Wilmington, Mass.) were dosed with test compounds via intravenous administration (IV) at a dose of 2.5 mg/kg or by oral gavage (PO) at a dose of 5 mg/kg. The dosing volume was 1 mL/kg for IV and 2 mL/kg for PO administration. Serial blood samples were collected from animals pre-dose, and at 2 (IV only), 5, 15, and 30 min, and at 1, 2, 4, 8, and 24 hours post-dose.
Standard pharmacokinetic parameters were assessed by non-compartmental analysis (Model 201 for IV and Model 200 for PO) using WinNonlin (Version 4.0.1, Pharsight, Mountain View, Calif.). The maximum in the curve of test compound concentration in blood plasma vs. time is denoted Cmax. The area under the concentration vs. time curve from the time of dosing to the last measurable concentration (AUC(0-t)) was calculated by the linear trapezoidal rule. Oral bioavailability (F(%)), i.e. the dose-normalized ratio of AUC(0-t) for PO administration to AUC(0-t) for IV administration, was calculated as: F(%)=AUCPO/AUCIV×DoseIV/DosePO×100%

T1 sequence (Q12809 whole entry): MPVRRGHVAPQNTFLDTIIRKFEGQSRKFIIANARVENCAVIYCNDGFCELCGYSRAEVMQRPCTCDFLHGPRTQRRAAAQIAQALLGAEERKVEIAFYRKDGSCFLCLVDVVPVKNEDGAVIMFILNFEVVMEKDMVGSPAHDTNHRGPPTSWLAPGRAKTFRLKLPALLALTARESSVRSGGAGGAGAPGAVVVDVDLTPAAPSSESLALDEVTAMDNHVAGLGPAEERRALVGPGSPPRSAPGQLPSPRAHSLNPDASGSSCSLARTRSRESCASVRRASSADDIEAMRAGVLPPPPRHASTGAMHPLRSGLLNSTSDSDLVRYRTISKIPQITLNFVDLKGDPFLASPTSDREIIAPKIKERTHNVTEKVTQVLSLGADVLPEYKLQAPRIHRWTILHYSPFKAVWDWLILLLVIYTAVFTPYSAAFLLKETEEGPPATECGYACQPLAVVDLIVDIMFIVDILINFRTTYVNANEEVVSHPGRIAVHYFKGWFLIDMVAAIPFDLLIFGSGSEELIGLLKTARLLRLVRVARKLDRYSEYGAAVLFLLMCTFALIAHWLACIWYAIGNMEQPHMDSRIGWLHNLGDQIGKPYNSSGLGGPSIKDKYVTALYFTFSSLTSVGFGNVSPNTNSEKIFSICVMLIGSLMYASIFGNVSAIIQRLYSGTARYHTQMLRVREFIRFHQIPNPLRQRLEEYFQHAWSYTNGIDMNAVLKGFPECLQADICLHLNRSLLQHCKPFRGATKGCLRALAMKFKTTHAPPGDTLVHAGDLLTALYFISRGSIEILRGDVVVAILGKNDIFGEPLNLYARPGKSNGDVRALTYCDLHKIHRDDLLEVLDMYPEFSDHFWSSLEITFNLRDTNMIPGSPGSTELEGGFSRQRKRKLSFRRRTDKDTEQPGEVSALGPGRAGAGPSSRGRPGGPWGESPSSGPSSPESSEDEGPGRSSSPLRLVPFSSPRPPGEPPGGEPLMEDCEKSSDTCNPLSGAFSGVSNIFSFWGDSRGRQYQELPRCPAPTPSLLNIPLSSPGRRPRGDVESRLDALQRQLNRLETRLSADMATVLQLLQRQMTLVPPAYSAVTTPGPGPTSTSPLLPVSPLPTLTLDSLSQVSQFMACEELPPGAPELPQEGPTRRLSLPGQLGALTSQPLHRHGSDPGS

## CC(C)n1c(=O)c(C(=O)NC2CC3CCC(C2)N3CCCS(=O)(=O)N2CCN(C)CC2)cc2ccccc21 [Example 17, 1-isopropyl-2-oxo-1,2-dihydroquinoline-3-carboxylic acid {(1S,3R,5R)-8-[3-(4-methylpiperazine-1-sulfonyl)propyl]-8-azabicyclo[3.2.1]oct-3-yl}amide]
[1]
  inhibition at 5 min, 3 µM: < 15%
In vivo
  bioavailability: ~20%
In vivo; po, 5 mg/kg
  AUC(0-t): 450 ng·h/mL
  Cmax: 60 ng/mL
